These results are taken from PMC7114883 (ACS Omega, 2020).

The target in one data set is hERG channel (Homo sapiens, UniProt Q12809). The data set can be described thus: hERG channel inhibition. In kind it is biochemical. In general terms: Block of hERG is tested as a sign of cardiac risk.
A short description of another data set: Solubility at pH 6.8. In kind it is physicochemical. To be noted: pH 6.8, aqueous buffer.
A short description of data set [1]: PAMPA parallel artificial membrane permeability assay. The data set is classed as in vitro ADME. To be noted: fraction absorbed.
The nature of data set [2]: In vitro metabolic stability in mouse liver microsomes. The data set is classed as in vitro ADME. Background: Liver microsomes are a subcellular fraction often used to study metabolism.
The nature of data set [3]: In vitro metabolic stability in human liver microsomes. In kind it is in vitro ADME.
For a further data set, the system named is P. falciparum NF54. The experiment in a line: Pf NF54 activity determined at NITD. In kind it is cell-based. To be noted: Plasmodium falciparum, NF54, read-out: IC50 PfNF54.

hERG channel, sequence (Q12809 whole entry): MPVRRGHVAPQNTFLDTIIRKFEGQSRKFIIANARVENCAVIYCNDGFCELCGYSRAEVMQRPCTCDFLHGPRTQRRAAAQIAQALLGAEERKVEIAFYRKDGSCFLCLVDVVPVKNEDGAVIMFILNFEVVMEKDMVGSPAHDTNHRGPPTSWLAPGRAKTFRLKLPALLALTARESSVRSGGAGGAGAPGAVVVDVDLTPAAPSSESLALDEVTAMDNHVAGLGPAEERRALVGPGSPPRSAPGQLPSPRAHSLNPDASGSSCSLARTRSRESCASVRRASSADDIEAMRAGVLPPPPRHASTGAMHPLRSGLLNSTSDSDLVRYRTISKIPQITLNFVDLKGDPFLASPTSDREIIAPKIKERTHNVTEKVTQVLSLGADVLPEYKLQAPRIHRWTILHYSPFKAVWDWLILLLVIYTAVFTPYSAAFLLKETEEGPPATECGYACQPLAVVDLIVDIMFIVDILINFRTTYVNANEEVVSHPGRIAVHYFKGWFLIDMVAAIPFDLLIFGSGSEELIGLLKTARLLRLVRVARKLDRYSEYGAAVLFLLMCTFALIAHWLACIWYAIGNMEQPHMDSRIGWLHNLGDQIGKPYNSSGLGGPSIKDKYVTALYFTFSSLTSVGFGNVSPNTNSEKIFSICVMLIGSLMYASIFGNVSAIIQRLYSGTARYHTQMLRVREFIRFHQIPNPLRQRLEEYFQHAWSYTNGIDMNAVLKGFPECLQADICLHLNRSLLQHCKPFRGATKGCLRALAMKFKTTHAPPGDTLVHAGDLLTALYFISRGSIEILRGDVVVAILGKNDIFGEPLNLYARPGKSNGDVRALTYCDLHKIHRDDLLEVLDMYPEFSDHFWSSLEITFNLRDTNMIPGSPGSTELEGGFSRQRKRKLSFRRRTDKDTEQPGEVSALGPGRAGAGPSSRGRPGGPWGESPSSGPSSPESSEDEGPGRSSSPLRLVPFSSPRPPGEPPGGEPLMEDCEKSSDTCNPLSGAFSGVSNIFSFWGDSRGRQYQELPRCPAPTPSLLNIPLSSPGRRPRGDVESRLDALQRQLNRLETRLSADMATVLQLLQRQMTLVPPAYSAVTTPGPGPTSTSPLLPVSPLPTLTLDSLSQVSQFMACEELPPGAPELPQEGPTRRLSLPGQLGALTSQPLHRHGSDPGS

In the case of `c1ccc(Cn2c(N3CCNCC3)nc3ccccc32)cc1` [Compound 1, Lerisetron, reference compound], the figures for the IC50 against hERG channel and with P. falciparum NF54 were 320 nM and 810 nM, respectively. Also, in the data set “Solubility at pH 6.8”, the solubility is > 1000 µM. Also, in data set [1], the “PAMPA (%FA)” value is 99 %FA. Moreover, in data set [2], the “In vitro metabolic stability in liver microsomes, mouse” value came out at 29 µL/min/mg. In data set [3], the “In vitro metabolic stability in liver microsomes, human” value was found to be 26.6 µL/min/mg.

What is called IC50 is the concentration at which inhibition is half-maximal. One may read the solubility as the dissolved amount per volume that the medium holds.
